{"source": "patent US7723328B2", "about": "“Methods of facilitating cell survival using neurotrophin mimetics” (The University of North Carolina at Chapel Hill, priority 2005, dated 2010)", "key": {"[1]": {"molecular_target": "T1, p75^NTR-Fc (Homo sapiens, UniProt P08138)", "T1 construct": "purchased R&D Systems", "T1 sequence (P08138 with tags, fused parts or gaps limits assumed)": "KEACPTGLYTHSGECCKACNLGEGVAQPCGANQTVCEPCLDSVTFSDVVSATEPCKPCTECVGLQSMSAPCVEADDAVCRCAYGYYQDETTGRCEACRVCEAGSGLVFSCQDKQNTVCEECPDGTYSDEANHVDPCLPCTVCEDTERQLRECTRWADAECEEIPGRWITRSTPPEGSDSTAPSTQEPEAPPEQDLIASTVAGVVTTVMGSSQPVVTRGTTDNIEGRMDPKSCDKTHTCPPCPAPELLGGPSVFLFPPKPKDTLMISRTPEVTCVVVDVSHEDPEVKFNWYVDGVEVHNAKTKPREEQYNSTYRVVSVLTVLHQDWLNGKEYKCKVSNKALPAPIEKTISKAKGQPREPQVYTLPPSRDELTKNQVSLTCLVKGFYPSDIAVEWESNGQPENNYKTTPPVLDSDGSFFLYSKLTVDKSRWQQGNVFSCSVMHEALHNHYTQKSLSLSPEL", "experiment": "NGF/p75NTR-Fc binding by NGF ELISA, Gaddum/Schild fit", "details": "read-out: KD for NGF; in the absence of compounds", "procedure": "Briefly, 96-well plates were incubated with 0.1 pmol (at 1 nM) of p75/Fc or TrkA/Fc recombinant protein obtained from R&D System (Minneapolis, Minn., United States of America) overnight at 4° C. followed by incubation with blocking buffer for 1 hour at room temperature. […] Plates were then washed five times with Tris-buffered saline (TBS) containing 0.05% Tween-20 and incubated with anti-NGF rabbit polyclonal antibody overnight at 4° C. Following five washes with TBS, wells were incubated for 2.5 hours at room temperature with anti-rabbit IgG HRP conjugate and washed five times. 3,3′,5,5′-tetramethyl-benzidine substrate was added and the optical density measured at 450 nm.\nA regression analysis of NGF-p75^NTR binding in the presence of the p75-binding compounds was performed. The data was fit using the Nonlinear Regression module of Sigmaplot, to a modification of the Gaddum/Schild equation (adapted from Motulsky, H. J., and Christopoulos. A. (2003) A Practical Guide to Curve Fitting, 2nd edn. (San Diego, Calif., GraphPad Software, Inc.): […]"}, "[2]": {"test_system": "p75^NTR−/− cells", "experiment": "Survival of p75NTR+/+ versus p75NTR-/- hippocampal neurons", "format": "cell-based, mouse", "details": "neurotrophins 1.8 nM, compounds 5 nM", "procedure": "(§1) Hippocampal neurons were prepared from E16-17 mouse embryos as previously described (Yang. T. et al. (2003) J Neurosci 23, 3353-3363). […] For studies employing p75^NTR+/+ and p75^NTR−/− neurons, mice carrying a mutation in exon 3 of the p75^NTR gene (Lee, K. F. et al. (1992) Cell 69, 737-749) were bred onto a B6 congenic background (>10 B6 backcrosses).\n(§2) After 48 hours in culture, cell survival was assessed as previously described (Longo, F. M., Manthorpe. M., Xie. Y. M., Varon, S. (1997) J Neurosci Res 48, 1-17) using a combination of standard morphological criteria along with visual determination of whether a given cell converted MTT to its blue formazan product. The number of surviving neurons was determined by counting the total number of cells in each well that were both morphologically intact and filed with blue product (Longo F. M., Manthorpe. M., Xie, Y. M., Varon, S. (1997) J Neurosci Res 48, 1-17). For each neurotrophin or compound concentration, duplicate wells were counted and the resulting values averaged. Activity of each compound was confirmed by blinded counts. Counts were normalized to survival achieved with 25 ng/ml BDNF or to baseline survival. Fitting of dose-responsive curves was performed with Sigmaplot obtained from SYSTAT Software Inc. (Richmond, Calif., United States of America).\n(§3) For all studies applying signaling inhibitors, p75^NTR antibodies or p75^NTR−/− neurons, survival was assessed at 48 hours."}, "[3]": {"molecular_target": "T2, TrkB (Mus musculus, UniProt P15209)", "T2 construct": "endogenous in cells; host or cells: primary hippocampal neurons from E16-17 mouse embryos", "T2 sequence (P15209 32-821)": "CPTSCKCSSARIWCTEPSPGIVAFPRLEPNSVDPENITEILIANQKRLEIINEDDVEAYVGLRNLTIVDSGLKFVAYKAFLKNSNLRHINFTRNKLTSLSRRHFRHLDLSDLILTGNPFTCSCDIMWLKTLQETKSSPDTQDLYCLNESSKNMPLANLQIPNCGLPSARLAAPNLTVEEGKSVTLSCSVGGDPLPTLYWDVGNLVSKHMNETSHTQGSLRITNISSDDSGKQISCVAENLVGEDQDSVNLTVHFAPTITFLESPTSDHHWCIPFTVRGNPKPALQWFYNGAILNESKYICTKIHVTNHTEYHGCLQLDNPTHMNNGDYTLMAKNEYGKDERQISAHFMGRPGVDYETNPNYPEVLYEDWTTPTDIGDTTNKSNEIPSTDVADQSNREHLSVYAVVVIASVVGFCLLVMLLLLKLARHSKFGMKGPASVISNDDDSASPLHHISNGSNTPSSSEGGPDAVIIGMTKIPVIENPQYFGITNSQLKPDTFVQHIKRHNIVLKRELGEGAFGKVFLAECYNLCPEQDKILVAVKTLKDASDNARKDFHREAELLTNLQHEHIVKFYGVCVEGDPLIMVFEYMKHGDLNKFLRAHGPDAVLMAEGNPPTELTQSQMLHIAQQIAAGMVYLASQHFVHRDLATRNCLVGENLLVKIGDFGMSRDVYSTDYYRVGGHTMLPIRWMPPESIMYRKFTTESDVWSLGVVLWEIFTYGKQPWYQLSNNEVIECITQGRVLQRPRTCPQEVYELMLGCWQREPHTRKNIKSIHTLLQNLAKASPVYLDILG", "experiment": "Trk Y490 phosphorylation western blot in hippocampal neuron cultures", "format": "cell-based", "details": "10 or 30 minutes", "procedure": "(§4) For assays of Trk, AKT, NFκB, and ERK activation, hippocampal neurons derived from E16-17 mice were cultured in poly-L-lysine coated six-well plates (Corning, Inc., Corning, N.Y., United States of America) in DMEM containing 10% FBS, followed by incubation in serum-free DMEM for 2 hours before addition of neurotrophins or compounds. At the indicated time points, neurons were harvested in lysis buffer consisting of: 20 mM Tris, pH 8.0, 137 mM NaCl, 1% Igepal CA-630, 10% glycerol, 1 mM PMSF, 10 μg/ml aprotinin, 1 μg/ml leupeptin, 500 μM orthovanadate (Zhou, J., Valletta, J. S., Grimes, M. L., Mobley, W. C. (1995) J Neurochem 65, 1146-1156).\n(§5) Lysates were centrifuged, the supernatant collected, and protein concentrations determined using the BCA Protein Assay Reagent obtained from Pierce (Rockford, Ill., United States of America). Western blots were performed as described previously (Yang, T. et al. (2003) J Neurosci 23, 3353-3363). Western blot signals were detected using the ECL Chemiluminescence System obtained by Amersham (Piscataway, N.J., United States of America) (Yang, T. et al. (2003) J Neurosci 23, 3353-3363)."}, "[4]": {"test_system": "AKT", "experiment": "AKT activation western blot in hippocampal cultures", "format": "cell-based, mouse", "details": "p75NTR−/− neurons, versus culture medium alone", "procedure": "as §4, §5"}, "[5]": {"test_system": "ERK42", "experiment": "ERK42 activation western blot in hippocampal cultures", "format": "cell-based, mouse", "details": "compounds 20 nM, BDNF/NGF 50 ng/ml; 10 and 30 min", "procedure": "as §4, §5"}, "[6]": {"test_system": "hippocampal neurons", "experiment": "Hippocampal neuron survival with signaling pathway inhibitors", "format": "cell-based, mouse", "details": "PD98059 50 μM; BDNF/NGF 25 ng/ml, compounds 5 nM; 48 h", "procedure": "as §1, §2, §3"}, "[7]": {"test_system": "E17 hippocampal neurons", "experiment": "Aβ-induced death of hippocampal neurons", "format": "cell-based", "details": "Aβ1-42 10 μM; NGF at 100 pg/ml", "procedure": "Using previously well established protocols, Aβ was preincubated for 3 days in water to allow formation of oligomers. E17 hippocampal neurons were incubated for 5 days to allow for maturation prior to addition of Aβ with test compounds."}, "[8]": {"molecular_target": "T1, p75^NTR-Fc", "details": "read-out: KD for NGF, previous reports; Nykjaer et al. 2004; cited from earlier work"}}, "note": "Entries after “also recorded” stand apart in the source; their conditions may differ. Where two headings read alike, the source gives them in different places."}
{"substance": "NGF: Recombinant human NGF obtained from Invitrogen", "values": [{"measurement": "Kd", "setting": "[1]", "result": "0.8 to 0.9", "unit": "nM"}, {"measurement": "effect of p75NTR-deficiency on promotion of neuron survival by the substance", "setting": "[2]", "result": "lack of response; also recorded: completely inhibits"}, {"measurement": "TrkB activation (Trk Y490 phosphorylation)", "setting": "[3]", "result": "no activation was detected"}, {"measurement": "AKT activation in p75NTR−/− cells", "setting": "[4]", "result": "completely absent"}, {"measurement": "ERK42 activation", "setting": "[5]", "result": "greater with BDNF and NGF treatment than with the p75-binding compounds"}, {"measurement": "effect of PD98059 (ERK inhibitor) on survival promoted by the substance", "setting": "[6]", "result": "small but significant effect; also recorded: small effects"}, {"measurement": "protection against Aβ1-42-induced death", "setting": "[7]", "result": "fails to protect; also recorded: did not protect"}, {"measurement": "Kd", "setting": "[8]", "result": "~1", "unit": "nM"}]}
